# According to US20220016101A1 (ACADIA Pharmaceuticals Inc., priority 2018, published 2022):
# Tested on: patients with MDD and an inadequate response to an SSRI or SNRI
# Test: Massachusetts General Hospital Sexual Functioning Index (MGH-SFI), Study ACP-103-042
# Assay type: in vivo, human
# Parameters: key to MGH-SFI Ability to Get Sexually Aroused or Excited, treatment effect size / MGH-SFI Ability to Achieve Orgasm, treatment effect size / MGH-SFI Overall Sexual Satisfaction, treatment effect size: Cohen's d = LS mean difference (PIM vs PBO) / SD
# Source text: “Massachusetts General Hospital Sexual Functioning Index (MGH-SFI)” is described, for instance, in Labbate and Lare, 2001, Psychother Psychosom. 70(4):221-225. This is a patient facing questionnaire that quantifies sexual dysfunction into 5 functional domains (“interest in sex,” “sexual arousal,” “ability to achieve orgasm,” “ability to maintain erection” (males only), and “sexual satisfaction”). Patients rate each item using a 6-point scale ranging from 1 (good function) to 6 (poor function). High scores indicate poor sexual functioning. […] The determination of the subject's status and eligibility for randomization in Stage 2 was made in a double-blind manner. […] Sexual functioning was assessed using the Massachusetts General Hospital Sexual Functioning Index or MGH-SFI (Labbate and Lare, 2001, Psychother Psychosom. 70(4):221-225). This is a patient facing questionnaire that quantifies sexual dysfunction into 5 functional domains (“interest in sex,” “sexual arousal,” “ability to achieve orgasm,” “ability to maintain erection” [malesonly], and “sexual satisfaction”). Patients rate each item using a 6-point scale ranging from 1 (good function) to 6 (poor function). The time frame for this scale is the past month. This scale was administered at baseline and Week 5 in both stages of the study. High scores indicate poor sexual functioning. In ACP-103-042 the mean scores for MGH-SFI at Baseline was calculated over all 5 domains for males and the 4 domains for females. For MGH-SFI (follow-up version) at Study Weeks 5 and 10, the mean was calculated in the same way as MGH-SFI at Baseline. […] Tables 10-27 summarize the detailed data of MGH-SFI individual items of the overall study group (Tables 10-15), the subgroup of age of <=50 (Tables 16-21) and the subgroup of age of >50 (Table 21-26). In Tables 9-26, ANCOVA=analysis of covariance; OC=observed cases; LSM=least squares mean; CI=confidence interval; SD=standard deviation; SE=standard error. Stage 1: Baseline=Study Week 0, Week 5=Study Week 5; Stage 2: Baseline=Study Week 5, Week 5=Study Weeks 10. LSM from the stage-specific ANCOVA analysis with the change from baseline as the outcome, treatment group as a factor, and the corresponding Baseline value as a covariate. 2-sided p-value for treatment difference from the stage-specific ANCOVA analysis. An treatment effect size (Cohen's d) is calculated using the formula: Effect Size=Least Square mean difference between PIM and PBO/SD. The corresponding 95% confidence interval for an effect size is calculated based on the theoretical probability distribution of the effect size. […] Tables 10-15 and 28-38 summarize the detailed data of MGH-SFI individual items of the overall study group (Tables 10-15), the female subgroup (Tables 33-37) and the male subgroup (Table 38-43). An treatment effect size (Cohen's d) is calculated using the formula: Effect Size=Least Square mean difference between PIM and PBO/SD. The corresponding 95% confidence interval for an effect size is calculated based on the theoretical probability distribution of the effect size. In Tables 10-15 and 28-38, ANCOVA=analysis of covariance; OC=observed cases; LSM=least squares mean; CI=confidence interval; SD=standard deviation; SE=standard error. Stage 1: Baseline=Study Week 0, Week 5=Study Week 5; Stage 2: Baseline=Study Week 5, Week 5=Study Weeks 10. LSM from the stage-specific ANCOVA analysis with the change from baseline as the outcome, treatment group as a factor, and the corresponding Baseline value as a covariate. 2-sided p-value for treatment difference from the stage-specific ANCOVA analysis. An treatment effect size (Cohen's d) is calculated using the formula: Effect Size=Least Square mean difference between PIM and PBO/SD. The corresponding 95% confidence interval for an effect size is calculated based on the theoretical probability distribution of the effect size.
# [1] = Stage 1, Overall Study Group, 34 mg QD + SSRI/SNRI
# [2] = Stage 1, Subgroup of <=50 Years
# [3] = Stage 1, Subgroup of <=50 Years Old
# [4] = Stage 1, Subgroup of <=50 Years Old, 34 mg QD + SSRI/SNRI
structure (smiles),measurement,setting,value
"CC(C)COc1ccc(CNC(=O)N(Cc2ccc(F)cc2)C2CCN(C)CC2)cc1 [pimavanserin, N-(4-Fluorophenylmethyl)-N-(1-methylpiperidin-4-yl)-N′-(4-(2-methylpropyloxy)phenylmethyl)carbamide]",MGH-SFI Items mean change stratified by age >50 or ≤50 years vs placebo,Stage 1,differences were only significant for the age >50 years subgroup
same,MGH-SFI treatment effect size for pimavanserin compared to placebo,Stage 1,0.614
same,"MGH-SFI 01: Interest in Sex, Change from Baseline to Week 5 Mean (SE)","Stage 1, Overall Study Group",−0.9 (0.23)
same,"MGH-SFI 01: Interest in Sex, Change from Baseline to Week 5 Median","Stage 1, Overall Study Group",−1.0
same,"MGH-SFI 01: Interest in Sex, Effect Size (Cohen's d)","Stage 1, Overall Study Group",0.483
same,"MGH-SFI 01: Interest in Sex, Week 5 Median","Stage 1, Overall Study Group",4.0
same,"MGH-SFI 02: Ability to Get Sexually Aroused or Excited, Change from Baseline to Week 5 Mean (SE)","Stage 1, Overall Study Group",−0.8 (0.17)
same,"MGH-SFI 02: Ability to Get Sexually Aroused or Excited, Change from Baseline to Week 5 Median","Stage 1, Overall Study Group",−1.0
same,"MGH-SFI 02: Ability to Get Sexually Aroused or Excited, Effect Size (Cohen's d)","Stage 1, Overall Study Group",0.560
same,"MGH-SFI 02: Ability to Get Sexually Aroused or Excited, Week 5 Median","Stage 1, Overall Study Group",4.0
same,"MGH-SFI 03: Ability to Achieve Orgasm, Change from Baseline to Week 5 Mean (SE)","Stage 1, Overall Study Group",−1.0 (0.24)
same,"MGH-SFI 03: Ability to Achieve Orgasm, Change from Baseline to Week 5 Median","Stage 1, Overall Study Group",0.0
same,"MGH-SFI 03: Ability to Achieve Orgasm, Effect Size (Cohen's d)","Stage 1, Overall Study Group",0.609
same,"MGH-SFI 03: Ability to Achieve Orgasm, Week 5 Median","Stage 1, Overall Study Group",4.0
same,"MGH-SFI 04: (Men) Ability to Get and Maintain an Erection, Change from Baseline to Week 5 Mean (SE)","Stage 1, Overall Study Group",−0.3 (0.78)
same,"MGH-SFI 04: (Men) Ability to Get and Maintain an Erection, Change from Baseline to Week 5 Median","Stage 1, Overall Study Group",0.0
same,"MGH-SFI 04: (Men) Ability to Get and Maintain an Erection, Effect Size (Cohen's d)","Stage 1, Overall Study Group",0.105
same,"MGH-SFI 04: (Men) Ability to Get and Maintain an Erection, Week 5 Median","Stage 1, Overall Study Group",3.0
same,"MGH-SFI 05: Overall Sexual Satisfaction, Change from Baseline to Week 5 Mean (SE)","Stage 1, Overall Study Group",−0.8 (0.25)
same,"MGH-SFI 05: Overall Sexual Satisfaction, Change from Baseline to Week 5 Median","Stage 1, Overall Study Group",0.0
same,"MGH-SFI 05: Overall Sexual Satisfaction, Effect Size (Cohen's d)","Stage 1, Overall Study Group",0.524
same,"MGH-SFI 05: Overall Sexual Satisfaction, Week 5 Median","Stage 1, Overall Study Group",4.0
same,"MGH-SFI 06: Overall Improvement Since Last Medication Change, Effect Size (Cohen's d)","Stage 1, Overall Study Group",0.539
same,"MGH-SFI 06: Overall Improvement Since Last Medication Change, Week 5 Median","Stage 1, Overall Study Group",4.0
same,"MGH-SFI 01: Interest in Sex, Week 5 Mean (SE)",[1],3.8 (0.27)
same,"MGH-SFI 02: Ability to Get Sexually Aroused or Excited, Week 5 Mean (SE)",[1],3.7 (0.26)
same,"MGH-SFI 03: Ability to Achieve Orgasm, Week 5 Mean (SE)",[1],3.8 (0.26)
same,"MGH-SFI 04: (Men) Ability to Get and Maintain an Erection, Week 5 Mean (SE)",[1],3.9 (0.70)
same,"MGH-SFI 05: Overall Sexual Satisfaction, Week 5 Mean (SE)",[1],3.9 (0.27)
same,"MGH-SFI 06: Overall Improvement Since Last Medication Change, Week 5 Mean (SE)",[1],3.2 (0.17)
same,"MGH-SFI 01: Interest in Sex, Change from Baseline to Week 5 Mean (SE)",[2],−0.7 (0.45)
same,"MGH-SFI 01: Interest in Sex, Change from Baseline to Week 5 Median",[2],0.0
same,"MGH-SFI 01: Interest in Sex, Effect Size (Cohen's d)",[2],0.347
same,"MGH-SFI 01: Interest in Sex, Week 5 Median",[2],3.0
same,"MGH-SFI 02: Ability to Get Sexually Aroused or Excited, Change from Baseline to Week 5 Mean (SE)",[3],−0.5 (0.27)
same,"MGH-SFI 02: Ability to Get Sexually Aroused or Excited, Change from Baseline to Week 5 Median",[3],0.0
same,"MGH-SFI 02: Ability to Get Sexually Aroused or Excited, Effect Size (Cohen's d)",[3],0.447
same,"MGH-SFI 02: Ability to Get Sexually Aroused or Excited, Week 5 Median",[3],3.0
same,"MGH-SFI 03: Ability to Achieve Orgasm, Change from Baseline to Week 5 Mean (SE)",[3],−0.8 (0.36)
same,"MGH-SFI 03: Ability to Achieve Orgasm, Change from Baseline to Week 5 Median",[3],0.0
same,"MGH-SFI 03: Ability to Achieve Orgasm, Effect Size (Cohen's d)",[3],0.352
same,"MGH-SFI 03: Ability to Achieve Orgasm, Week 5 Median",[3],4.0
same,"MGH-SFI 02: Ability to Get Sexually Aroused or Excited, Week 5 Mean (SE)",[4],3.4 (0.42)
same,"MGH-SFI 03: Ability to Achieve Orgasm, Week 5 Mean (SE)",[4],3.8 (0.42)
same,"MGH-SFI 01: Interest in Sex, Week 5 Mean (SE)","Stage 1, Subgroup of <=50 Years, 34 mg QD + SSRI/SNRI",3.5 (0.45)
same,"MGH-SFI Ability to Achieve Orgasm, treatment effect size","Stage 1, female subgroup",0.749
same,"MGH-SFI Ability to Get Sexually Aroused or Excited, treatment effect size","Stage 1, female subgroup",0.616
same,"MGH-SFI Interest in Sex, treatment effect size","Stage 1, female subgroup",0.561
same,"MGH-SFI Overall Improvement Since Last Medication Change, treatment effect size","Stage 1, female subgroup",0.634
same,"MGH-SFI Overall Sexual Satisfaction, treatment effect size","Stage 1, female subgroup",0.627
same,MGH-SFI effects vs placebo when assessed by MDD remission status,"Stage 1, patients with or without remission",robust and significant effects
same,MGH-SFI treatment effect size for pimavanserin compared to placebo,Stage 2,0.412
same,"MGH-SFI 01: Interest in Sex, Change from Baseline to Week 5 Mean (SE)","Stage 2, Overall Study Group",−0.4 (0.16)
same,"MGH-SFI 01: Interest in Sex, Change from Baseline to Week 5 Median","Stage 2, Overall Study Group",0.0
same,"MGH-SFI 01: Interest in Sex, Effect Size (Cohen's d)","Stage 2, Overall Study Group",0.227
same,"MGH-SFI 01: Interest in Sex, Week 5 Median","Stage 2, Overall Study Group",4.0
same,"MGH-SFI 02: Ability to Get Sexually Aroused or Excited, Change from Baseline to Week 5 Mean (SE)","Stage 2, Overall Study Group",−0.4 (0.16)
same,"MGH-SFI 02: Ability to Get Sexually Aroused or Excited, Change from Baseline to Week 5 Median","Stage 2, Overall Study Group",0.0
same,"MGH-SFI 02: Ability to Get Sexually Aroused or Excited, Effect Size (Cohen's d)","Stage 2, Overall Study Group",−0.025
same,"MGH-SFI 02: Ability to Get Sexually Aroused or Excited, Week 5 Median","Stage 2, Overall Study Group",4.5
same,"MGH-SFI 03: Ability to Achieve Orgasm, Change from Baseline to Week 5 Mean (SE)","Stage 2, Overall Study Group",−0.4 (0.18)
same,"MGH-SFI 03: Ability to Achieve Orgasm, Change from Baseline to Week 5 Median","Stage 2, Overall Study Group",0.0
same,"MGH-SFI 03: Ability to Achieve Orgasm, Effect Size (Cohen's d)","Stage 2, Overall Study Group",0.300
same,"MGH-SFI 03: Ability to Achieve Orgasm, Week 5 Median","Stage 2, Overall Study Group",5.0
same,"MGH-SFI 04: (Men) Ability to Get and Maintain an Erection, Change from Baseline to Week 5 Mean (SE)","Stage 2, Overall Study Group",−1.0 (0.41)
same,"MGH-SFI 04: (Men) Ability to Get and Maintain an Erection, Change from Baseline to Week 5 Median","Stage 2, Overall Study Group",−1.0
same,"MGH-SFI 04: (Men) Ability to Get and Maintain an Erection, Effect Size (Cohen's d)","Stage 2, Overall Study Group",0.701
same,"MGH-SFI 04: (Men) Ability to Get and Maintain an Erection, Week 5 Median","Stage 2, Overall Study Group",4.0
same,"MGH-SFI 05: Overall Sexual Satisfaction, Change from Baseline to Week 5 Mean (SE)","Stage 2, Overall Study Group",−0.7 (0.25)
same,"MGH-SFI 05: Overall Sexual Satisfaction, Change from Baseline to Week 5 Median","Stage 2, Overall Study Group",−0.5
